# Measurements: US12398120B2, “Substituted hydantoinamides as ADAMTS7 antagonists” (BAYER AKTIENGESELLSCHAFT, priority 2019, dated 2025)
# Target: ADAMTS4 (Homo sapiens (Human), UniProt O75173)
# Assay: Selectivity assay for ADAMTS-7 modulators: ADAMTS4 (FRET substrate)
# Type: biochemical
# Conditions: ADAMTS4 (R&D 4307-AD) 50 nM, substrate Dabcyl-EEVKAKVQPY-Glu(Edans)-NH2 1 μM, 120 min, 32° C.
# How it was run: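 Activity read as rising fluorescence after a FRET substrate is cleaved by human ADAMTS4, with reactions started by substrate addition to wells holding compound or DMSO. Percent inhibition plotted against concentration gave IC50.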
# ADAMTS4, sequence (O75173 213-685): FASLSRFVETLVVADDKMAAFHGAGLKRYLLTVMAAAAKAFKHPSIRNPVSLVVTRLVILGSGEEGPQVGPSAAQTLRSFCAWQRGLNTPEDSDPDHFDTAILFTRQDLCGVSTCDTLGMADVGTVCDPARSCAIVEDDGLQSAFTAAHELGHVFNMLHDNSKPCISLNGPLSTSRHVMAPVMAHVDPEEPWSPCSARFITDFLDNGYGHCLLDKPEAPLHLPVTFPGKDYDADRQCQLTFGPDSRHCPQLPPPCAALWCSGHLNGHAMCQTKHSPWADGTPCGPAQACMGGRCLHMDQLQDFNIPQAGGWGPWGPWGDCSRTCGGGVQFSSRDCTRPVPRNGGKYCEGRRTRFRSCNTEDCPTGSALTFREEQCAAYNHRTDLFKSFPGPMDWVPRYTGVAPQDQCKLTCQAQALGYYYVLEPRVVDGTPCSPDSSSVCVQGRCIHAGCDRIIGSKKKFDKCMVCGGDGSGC
row,SMILES,IC50
1,"O=C1NC(=O)C(CNC(=O)c2ccc(F)c(F)c2-c2ccc(C(F)(F)F)cc2)(C2(F)CC2)N1 (single isomer, unassigned; ent-5) [Example 298, Ent-5,6-Difluoro-N-{[4-(1-Fluorocyclopropyl)-2,5-Dioxoimidazolidin-4-Yl]Methyl}-4′-(Trifluoromethyl)[Biphenyl]-2-Carboxamide]",9.3 µM
2,"O=C1NC(=O)[C@](CNC(=O)c2ccccc2-c2ccc(Cl)c(Cl)c2)(C2CC2)N1 [Example 227, 3′,4′-Dichloro-N-{[(4R)-4-Cyclopropyl-2,5-Dioxoimidazolidin-4-Yl]Methyl}[1,1′-Biphenyl]-2-Carboxamide]",41 µM
3,"O=C1NC(=O)[C@](CNC(=O)c2ccccc2-c2ccc(C(F)F)cc2)(C2CC2)N1 [Example 122, N-{[(4R)-4-Cyclopropyl-2,5-Dioxoimidazolidin-4-Yl]Methyl}-4′-(Difluoromethyl)[Biphenyl]-2-Carboxamide]",7.9 µM
4,"Cc1nsnc1C1(CNC(=O)c2ccccc2-c2ccc(C(F)(F)F)cc2)NC(=O)NC1=O (racemic) [Example 62, Rac-N-{[4-(4-Methyl-1,2,5-Thiadiazol-3-Yl)-2,5-Dioxoimidazolidin-4-Yl]Methyl}-4′-(Trifluoromethyl)[Biphenyl]-2-Carboxamide]",26 µM
5,"Cc1scnc1C1(CNC(=O)c2ccccc2-c2ccc(S(C)(=O)=O)cc2)NC(=O)NC1=O (single isomer, unassigned; ent-4) [Example 175, Ent-4′-(Methylsulfonyl)-N-{[4-(5-Methyl-1,3-Thiazol-4-Yl)-2,5-Dioxoimidazolidin-4-Yl]Methyl}[Biphenyl]-2-Carboxamide]",4.9 µM
6,"O=C1NC(=O)[C@](CNC(=O)c2ccc(F)cc2-c2ccc(C3CC3(F)F)cc2)(C2CC2)N1 (stereo partly drawn) [Example 142, N-{[(4R)-4-Cyclopropyl-2,5-Dioxoimidazolidin-4-Yl]Methyl}-4′-(2,2-Difluorocyclopropyl)-5-Fluoro[1,1′-Biphenyl]-2-Carboxamide]",18 µM
7,"Cc1ccc(-c2ccccc2C(=O)NCC2(c3nccs3)NC(=O)NC2=O)cc1 (racemic) [Example 200, Rac-N-{[2,5-Dioxo-4-(1,3-Thiazol-2-Yl)Imidazolidin-4-Yl]Methyl}-4′-Methyl[Biphenyl]-2-Carboxamide]",28 µM
8,"O=C1NC(=O)C(CNC(=O)c2ccccc2-c2ccc(C(F)(F)F)cc2)(c2ncsc2C2CC2)N1 (stereo not drawn) [Example 271, Ent-N-{[4-(5-Cyclopropyl-1,3-Thiazol-4-Yl)-2,5-Dioxoimidazolidin-4-Yl]Methyl}-4′-(Trifluoromethyl)[Biphenyl]-2-Carboxamide]",2.7 µM
9,"O=C1NC(=O)[C@](CNC(=O)c2ccccc2-c2ccc(Cl)cc2)(C2CC2)N1 [Example 220, 4′-Chloro-N-{[(4R)-4-Cyclopropyl-2,5-Dioxoimidazolidin-4-Yl]Methyl}[1,1′-Biphenyl]-2-Carboxamide]",7.8 µM
10,"Cn1nccc1C1(CNC(=O)c2cc(F)ccc2-c2ccc(C(F)(F)F)cc2)NC(=O)NC1=O (racemic) [Example 177, Rac-4-Fluoro-N-{[4-(1-Methyl-1H-Pyrazol-5-Yl)-2,5-Dioxoimidazolidin-4-Yl]Methyl}-4′-(Trifluoromethyl)[Biphenyl]-2-Carboxamide]",12 µM
11,"Cc1scnc1C1(CNC(=O)c2ccccc2-c2ccc(C(F)(F)F)cc2)NC(=O)NC1=O (single isomer, unassigned) [Example 3, Ent-N-{[4-(5-Methyl-1,3-Thiazol-4-Yl)-2,5-Dioxoimidazolidin-4-Yl]Methyl}-4′-(Trifluoromethyl)[Biphenyl]-2-Carboxamide]",4.8 µM
12,"Cn1nccc1C1(CNC(=O)c2cc(F)ccc2-c2ccc(C(F)(F)F)nc2)NC(=O)NC1=O (single isomer, unassigned; ent-5) [Example 292, Ent-5-Fluoro-N-{[4-(1-Methyl-1H-Pyrazol-5-Yl)-2,5-Dioxoimidazolidin-4-Yl]Methyl}-2-[6-(Trifluoromethyl)Pyridin-3-Yl]Benzamide]",9.5 µM
13,"CC1CCC1C1(CNC(=O)c2ccccc2-c2ccc(C(F)(F)F)cc2)NC(=O)NC1=O (stereo not drawn) [Example 26, Ent-N-{[4-(2-Methylcyclobutyl)-2,5-Dioxoimidazolidin-4-Yl]Methyl}-4′-(Trifluoromethyl)[Biphenyl]-2-Carboxamide]",> 50 µM
14,"Cc1ccc(-c2ccccc2C(=O)NCC2(C(C)C)NC(=O)NC2=O)cc1 (racemic) [Example 204, Rac-N-[(4-Isopropyl-2,5-Dioxoimidazolidin-4-Yl)Methyl]-4′-Methyl[Biphenyl]-2-Carboxamide]",22 µM
15,"Cc1nocc1C1(CNC(=O)c2ccccc2-c2ccc(C(F)(F)F)cc2)NC(=O)NC1=O (stereo not drawn) [Example 68, Ent-N-{[4-(3-Methyl-1,2-Oxazol-4-Yl)-2,5-Dioxoimidazolidin-4-Yl]Methyl}-4′-(Trifluoromethyl)[Biphenyl]-2-Carboxamide]",11 µM
16,"CC(C)C1(CNC(=O)c2ccccc2-c2ccc(C(F)(F)F)cc2)NC(=O)NC1=O (racemic) [Example 208, Rac-N-[(4-Isopropyl-2,5-Dioxoimidazolidin-4-Yl)Methyl]-4′-(Trifluoromethyl)[Biphenyl]-2-Carboxamide]",> 50 µM
17,"Cc1ccc(C(=O)NCC2(c3ncsc3C)NC(=O)NC2=O)c(-c2ccc(C(F)(F)F)cc2)c1 (racemic) [Example 167, Rac-5-Methyl-N-{[4-(5-Methyl-1,3-Thiazol-4-Yl)-2,5-Dioxoimidazolidin-4-Yl]Methyl}-4′-(Trifluoromethyl)[Biphenyl]-2-Carboxamide]",4.4 µM
18,"O=C1NC(=O)C(CNC(=O)c2ccccc2-c2ccc(C(F)(F)F)cc2)(c2ccnn2C2CC2)N1 (stereo not drawn) [Example 46, Ent-N-{[4-(1-Cyclopropyl-1H-Pyrazol-5-Yl)-2,5-Dioxoimidazolidin-4-Yl]Methyl}-4′-(Trifluoromethyl)[Biphenyl]-2-Carboxamide]",4.8 µM
19,"O=C1NC(=O)[C@](CNC(=O)c2cccc(F)c2-c2ccc(C(F)(F)F)cc2)(C2CC2)N1 [Example 235, N-{[(4R)-4-Cyclopropyl-2,5-Dioxoimidazolidin-4-Yl]Methyl}-6-Fluoro-4′-(Trifluoromethyl)[1,1′-Biphenyl]-2-Carboxamide]",7.83 µM
20,"Cn1cncc1C1(CNC(=O)c2ccccc2-c2ccc(C(F)(F)F)cc2)NC(=O)NC1=O (racemic) [Example 283, Rac-N-{[4-(1-Methyl-1H-Imidazol-5-Yl)-2,5-Dioxoimidazolidin-4-Yl]Methyl}-4′-(Trifluoromethyl)[Biphenyl]-2-Carboxamide]",6.3 µM
21,"Cn1cncc1C1(CNC(=O)c2ccccc2-c2ccc(C(F)(F)F)cc2)NC(=O)NC1=O (stereo not drawn) [Example 297, Ent-N-{[4-(1-Methyl-1H-Imidazol-5-Yl)-2,5-Dioxoimidazolidin-4-Yl]Methyl}-4′-(Trifluoromethyl)[Biphenyl]-2-Carboxamide]",4.1 µM
22,"Cc1nsnc1C1(CNC(=O)c2ccccc2-c2ccc(C(F)(F)F)cc2)NC(=O)NC1=O (stereo not drawn) [Example 85, Ent-N-{[4-(4-Methyl-1,2,5-Thiadiazol-3-Yl)-2,5-Dioxoimidazolidin-4-Yl]Methyl}-4′-(Trifluoromethyl)[Biphenyl]-2-Carboxamide]",13 µM
23,"Cn1nccc1C1(CNC(=O)c2c(Cl)cccc2-c2ccc(Cl)cc2)NC(=O)NC1=O (single isomer, unassigned; ent-3) [Example 189, Ent-3,4′-Dichloro-N-{[4-(1-Methyl-1H-Pyrazol-5-Yl)-2,5-Dioxoimidazolidin-4-Yl]Methyl}[Biphenyl]-2-Carboxamide]",3.65 µM
24,"Cn1ccnc1C1(CNC(=O)c2ccc(F)cc2-c2ccc(Cl)cc2)NC(=O)NC1=O (single isomer, unassigned; ent-4) [Example 157, Ent-4′-Chloro-5-Fluoro-N-{[4-(1-Methyl-1H-Imidazol-2-Yl)-2,5-Dioxoimidazolidin-4-Yl]Methyl}[Biphenyl]-2-Carboxamide]",3 µM
25,"CC(C)(C#N)c1ccc(-c2ccccc2C(=O)NC[C@@]2(C3CC3)NC(=O)NC2=O)cc1 [Example 123, 4′-(2-Cyanopropan-2-Yl)-N-{[(4R)-4-Cyclopropyl-2,5-Dioxoimidazolidin-4-Yl]Methyl}[Biphenyl]-2-Carboxamide]",19 µM
26,"O=C1NC(=O)C(CNC(=O)c2ccccc2-c2ccc(Cl)cc2)(c2ncccc2C(F)(F)F)N1 (racemic) [Example 242, Rac-4′-Chloro-N-({2,5-Dioxo-4-[3-(Trifluoromethyl)Pyridin-2-Yl]Imidazolidin-4-Yl}Methyl)[Biphenyl]-2-Carboxamide]",29 µM
27,"CC1(CNC(=O)c2ccccc2-c2ccc(C(F)(F)F)cc2)NC(=O)NC1=O (racemic) [Example 95, Rac-N-[(4-Methyl-2,5-Dioxoimidazolidin-4-Yl)Methyl]-4′-(Trifluoromethyl)[Biphenyl]-2-Carboxamide]",> 50 µM
28,"Cn1nccc1C1(CNC(=O)c2ccc(F)c(F)c2-c2ccc(C(F)(F)F)cc2)NC(=O)NC1=O (single isomer, unassigned; ent-5) [Example 191, Ent-5,6-Difluoro-N-{[4-(1-Methyl-1H-Pyrazol-5-Yl)-2,5-Dioxoimidazolidin-4-Yl]Methyl}-4′-(Trifluoromethyl)[Biphenyl]-2-Carboxamide]",6.48 µM
29,"Cn1nccc1C1(CNC(=O)c2ccc(F)cc2-c2ccc(C(F)(F)F)cc2)NC(=O)NC1=O (racemic) [Example 183, Rac-5-Fluoro-N-{[4-(1-Methyl-1H-Pyrazol-5-Yl)-2,5-Dioxoimidazolidin-4-Yl]Methyl}-4′-(Trifluoromethyl)[Biphenyl]-2-Carboxamide]",19 µM
30,"Cn1ccnc1C1(CNC(=O)c2cc(F)ccc2-c2ccc(Cl)cc2)NC(=O)NC1=O (single isomer, unassigned; ent-4) [Example 160, Ent-4′-Chloro-4-Fluoro-N-{[4-(1-Methyl-1H-Imidazol-2-Yl)-2,5-Dioxoimidazolidin-4-Yl]Methyl}[Biphenyl]-2-Carboxamide]",0.83 µM
